Assay results published in paper PMC12363179, “Mapping the sialic acid-binding sites of LuIII and H-1 parvovirus” (Journal of Virology, 2025).

What was measured:
LuIII VLP (VP2) [1] = target: T1, LuIII VLP (VP2) (LuIII virus, UniProt P36310); assay: CFG glycan microarray v4.[…], antibody fluorescence; assay type: binding; details: immobilised glycan; unlabelled VLP 0.2 mg/mL, PBS, room temperature, 1 h
T1 construct: VP2-only virus-like particle without DNA, T=1 icosahedral 60-mer, baculovirus/Sf9; residues 37-587 modelled

LuIII VLP (VP2) [2] = target: T1, LuIII VLP (VP2); assay: Max-Planck glycan microarray, fluorescence; assay type: binding; details: immobilised glycan; DyLight488-labelled VLP 0.1 mg/mL, PBS-MK (MgCl2, KCl), 4 °C overnight
Description: Max-Planck glycan microarray, fluorescence on LuIII VLP (VP2)

[3] = target: H-1 parvovirus virus-like particle (VLP) composed of VP2, the major capsid protein (H-1 parvovirus); assay: cryo-EM structure; VLPs of VP2 in 10 mM Tris-HCl, 500 mM NaCl, 8 mM CaCl2, 2 mM MgCl2, pH 7.5, with or without glycan (s(LN)3 or s(Le^x)2); icosahedral reconstruction in cisTEM, 60mer models fitted
[4] = target: LuIII virus-like particle (VLP) composed of VP2, the major capsid protein (parvovirus LuIII); assay: as above
MVM / MVMp VLP (VP2) = target: T2, MVM / MVMp VLP (VP2) (Murine minute virus strain MVM prototype, UniProt P03137); assay: Max-Planck glycan microarray, fluorescence; assay type: binding; details: immobilised glycan; DyLight488-labelled VLP 0.4 mg/mL, PBS-MK (MgCl2, KCl), 4 °C overnight
T2 construct: VP2-only virus-like particle without DNA, T=1 icosahedral 60-mer, baculovirus/Sf9; DyLight488-labelled
Description: Max-Planck glycan microarray, fluorescence on MVM / MVMp VLP (VP2)

## CC(=O)N[C@H]1[C@H](O[C@H]2[C@@H](O)[C@@H](CO)O[C@@H](O[C@H]3[C@H](O)[C@@H](O)[C@H](OCCCN)O[C@@H]3CO)[C@@H]2O)O[C@H](CO)[C@@H](O)[C@@H]1O[C@@H]1O[C@H](CO)[C@H](O)[C@H](O)[C@H]1O[C@@H]1O[C@@H](C)[C@@H](O)[C@@H](O)[C@@H]1O [compound 65, Fucα1-2Galβ1-3GlcNAcβ1-3Galβ1-4Glcβ-Sp8]
LuIII VLP (VP2) [1]
  RFU: 601 ± 93 RFU

## CC(=O)N[C@H]1[C@H](OCCCN)O[C@H](CO)[C@@H](O[C@@H]2O[C@H](CO)[C@H](O)[C@H](O[C@]3(C(=O)O)C[C@H](O)[C@@H](NC(C)=O)[C@H]([C@H](O)[C@H](O)CO)O3)[C@H]2O)[C@@H]1O[C@@H]1O[C@@H](C)[C@@H](O)[C@@H](O)[C@@H]1O [compound 253, Neu5Acα2-3Galβ1-4(Fucα1-3)GlcNAcβ-Sp8]
LuIII VLP (VP2) [1]
  RFU: 1,685 ± 423 RFU

## CC(=O)N[C@H]1[C@H](O[C@H]2[C@@H](O)[C@@H](CO)O[C@@H](O[C@H]3[C@H](O)[C@@H](CO)O[C@@H](OCCN)[C@@H]3NC(C)=O)[C@@H]2O)O[C@H](CO)[C@@H](O[C@@H]2O[C@H](CO)[C@H](O)[C@H](O[C@]3(C(=O)O)C[C@H](O)[C@@H](NC(C)=O)[C@H]([C@H](O)[C@H](O)CO)O3)[C@H]2O)[C@@H]1O [compound 293, Neu5Acα2-3Galβ1-4GlcNAcβ1-3Galβ1-3GlcNAcβ-Sp0]
LuIII VLP (VP2) [1]
  RFU: 728 ± 180 RFU

## Fucα1-3(Neu5Acα2-3Gαlβ1-4)GlcNAcβ1-3Gαlβ1-4Glcβ-AH [compound 7]
LuIII VLP (VP2) [2]
  RFU: 151 ± 23 RFU

## H-1 parvovirus virus-like particle (VLP) composed of VP2, the major capsid protein (natural protein)
[3]
  stoichiometry N: 60

## LuIII virus-like particle (VLP) composed of VP2, the major capsid protein (natural protein)
[4]
  stoichiometry N: 60

## Neu5Acα2-3Gαlβ1-4GlcNAcβ1-3Gαlβ1-4Glcβ-AH [compound 6]
LuIII VLP (VP2) [2]
  RFU: 106 ± 37 RFU
MVM / MVMp VLP (VP2)
  RFU: 153 ± 24 RFU

## Neu5Acα2-3Gαlβ1-4Glcβ-AH [compound 9]
LuIII VLP (VP2) [2]
  RFU: 267 ± 44 RFU
MVM / MVMp VLP (VP2)
  RFU: 109 ± 102 RFU

## Neu5Acα2-6Gαlβ1-4GlcNAc-6-sulfαteβ-AH [compound 10]
MVM / MVMp VLP (VP2)
  RFU: 203 ± 36 RFU

## Neu5Acα2-6Gαlβ1-4Glcβ-AH [compound 8]
LuIII VLP (VP2) [2]
  RFU: 105 ± 13 RFU
